Experimental data reported in US20180179189A1, “ADIPATE FORMS AND COMPOSITIONS OF BIARYL INHIBITORS OF BRUTON'S TYROSINE KINASE” (BIOGEN MA INC., priority 2015, published 2018).

Assays:
[1] = DVS (dynamic vapor sorption) test; format: physicochemical
Protocol: DVS was measured via a SMS (Surface Measurement Systems) DVS Intrinsic. The relative humidity at 25° C. were calibrated against deliquescence point of LiCl, Mg(NO3)2 and KCl.

[2] = pKa via potentiometric titration; format: physicochemical
Source text: Where this threshold is not met, non-ionic interactions (e.g., hydrogen bonds) can still occur between neutral acid and the base compounds to form, e.g., a co-crystal.

Btk = details: reported in the '853 application; read-out: IC50 in a pBTK assay; cited from earlier work

Compound	form change after the DVS test (XRPD) [1]	water uptake (DVS) ([1]; 25° C./80% RH)	hygroscopicity ([1]; from DVS, 25° C./80% RH)	pKa [2]	IC50 (Btk)
Cc1cc(-c2ccnc(Nc3cnn(C)c3)n2)ccc1CNC(=O)N1CC(OC(C)C)C1 [Compound 2 Type II]	no form change	0.3%	slightly hygroscopic		
Cc1cc(-c2ccnc(Nc3cnn(C)c3)n2)ccc1CNC(=O)N1CC(OC(C)C)C1 [Compound 1, 3-isopropoxy-N-(2-methyl-4-(2-((1-methyl-1H-pyrazol-4-yl)amino)pyrimidin-4-yl)benzyl)azetidine-1-carboxamide]				3.31	[…]
